Experimental data: ChEMBL document CHEMBL1201862, “PubChem BioAssay data set” (2004)
Active and inactive are the calls of the source.

Columns and labels:
[1] = molecular target: Peroxisome proliferator-activated receptor gamma/Nuclear receptor corepressor 2 (Homo sapiens, UniProt P37231+Q9Y618); test: Counterscreen for NR2E3 inverse agonists: TR-FRET-based biochemical high throughput dose response assay to identify inverse agonists of the interaction between peroxisome proliferator-activated receptor gamma (PPARg) and nuclear receptor co-repressor 2 (NCOR2).; format: functional
[2] = molecular target: Photoreceptor-specific nuclear receptor (Homo sapiens, UniProt Q9Y5X4); test: ligands suppressing NR2E3 nuclear receptor activity – biochemical, TR-FRET, dose response (AID 463256); format: functional
Chain of Photoreceptor-specific nuclear receptor (Q9Y5X4 whole entry): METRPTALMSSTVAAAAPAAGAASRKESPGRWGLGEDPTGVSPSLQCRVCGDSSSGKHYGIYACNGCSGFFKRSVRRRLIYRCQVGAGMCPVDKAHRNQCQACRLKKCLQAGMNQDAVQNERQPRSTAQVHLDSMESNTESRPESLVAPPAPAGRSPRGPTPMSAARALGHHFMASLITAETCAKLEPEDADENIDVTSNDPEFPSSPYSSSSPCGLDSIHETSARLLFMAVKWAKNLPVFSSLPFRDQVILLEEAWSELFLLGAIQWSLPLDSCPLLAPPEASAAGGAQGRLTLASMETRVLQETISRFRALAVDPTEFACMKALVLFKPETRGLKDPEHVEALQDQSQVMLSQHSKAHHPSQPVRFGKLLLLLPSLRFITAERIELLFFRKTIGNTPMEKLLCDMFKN

[3] = molecular target: T1, Tyrosine-protein phosphatase non-receptor type 7 (Homo sapiens, UniProt P35236); test: HePTP tyrosine phosphatase activity blockers – biochemical, absorbance, leukemia target, primary screen (AID 521); format: functional
T1 sequence (P35236 whole entry): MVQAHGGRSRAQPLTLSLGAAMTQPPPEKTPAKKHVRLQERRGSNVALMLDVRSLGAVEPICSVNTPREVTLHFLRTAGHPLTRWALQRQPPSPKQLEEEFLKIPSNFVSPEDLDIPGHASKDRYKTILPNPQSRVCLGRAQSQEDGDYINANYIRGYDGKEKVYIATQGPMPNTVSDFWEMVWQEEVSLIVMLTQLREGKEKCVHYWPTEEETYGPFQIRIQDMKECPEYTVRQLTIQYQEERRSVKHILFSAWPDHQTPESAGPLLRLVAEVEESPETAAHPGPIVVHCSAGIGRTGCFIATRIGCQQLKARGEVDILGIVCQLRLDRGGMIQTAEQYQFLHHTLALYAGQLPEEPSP

[4] = molecular target: Cytochrome P450 2C19 (Homo sapiens, UniProt P33261); test: qHTS Assay for Inhibitors and Substrates of Cytochrome P450 2C19. [Related pubchem assays: 410 ]; format: ADME; conditions: read-out: Potency
Chain of Cytochrome P450 2C19 (P33261 whole entry): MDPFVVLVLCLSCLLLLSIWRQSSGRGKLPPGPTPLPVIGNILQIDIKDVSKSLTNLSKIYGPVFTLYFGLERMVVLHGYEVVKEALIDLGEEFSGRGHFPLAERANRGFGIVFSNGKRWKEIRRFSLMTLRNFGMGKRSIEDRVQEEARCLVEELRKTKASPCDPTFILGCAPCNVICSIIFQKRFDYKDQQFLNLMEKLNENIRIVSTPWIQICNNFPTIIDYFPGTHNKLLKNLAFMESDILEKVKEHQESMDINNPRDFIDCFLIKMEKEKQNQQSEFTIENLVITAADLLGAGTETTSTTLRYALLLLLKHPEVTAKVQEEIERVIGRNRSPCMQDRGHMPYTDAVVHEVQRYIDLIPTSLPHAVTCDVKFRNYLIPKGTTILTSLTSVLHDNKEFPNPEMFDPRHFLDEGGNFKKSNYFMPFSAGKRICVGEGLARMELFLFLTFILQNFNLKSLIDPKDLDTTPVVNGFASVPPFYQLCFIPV

[5] = molecular target: Cytochrome P450 3A4 (Homo sapiens, UniProt P08684); conditions: Potency;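 further: confirmatory qHTS run detecting inhibitors and substrates of CYP3A4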
Chain of Cytochrome P450 3A4 (P08684 whole entry): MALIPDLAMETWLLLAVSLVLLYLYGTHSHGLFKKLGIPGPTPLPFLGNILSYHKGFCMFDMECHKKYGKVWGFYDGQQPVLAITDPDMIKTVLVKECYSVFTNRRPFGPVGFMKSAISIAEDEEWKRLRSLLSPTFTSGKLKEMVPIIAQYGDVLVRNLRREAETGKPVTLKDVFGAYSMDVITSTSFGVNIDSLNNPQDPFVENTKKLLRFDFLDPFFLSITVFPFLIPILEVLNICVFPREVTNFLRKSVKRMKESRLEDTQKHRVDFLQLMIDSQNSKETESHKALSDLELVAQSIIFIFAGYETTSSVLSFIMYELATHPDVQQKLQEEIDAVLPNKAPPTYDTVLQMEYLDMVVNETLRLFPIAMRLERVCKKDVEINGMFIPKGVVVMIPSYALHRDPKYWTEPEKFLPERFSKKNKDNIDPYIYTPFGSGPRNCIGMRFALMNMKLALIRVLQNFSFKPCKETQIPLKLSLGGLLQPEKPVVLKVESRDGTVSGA

[6] = molecular target: T2, Probable nicotinate-nucleotide adenylyltransferase (Staphylococcus aureus (strain N315), UniProt P65502); format: functional, Staphylococcus aureus subsp. aureus N315;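 on IC50 Mean: confirmatory dose-response retesting of NadD inhibitor hits first found in an ultra-high-throughput screen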
T2 sequence (P65502 whole entry): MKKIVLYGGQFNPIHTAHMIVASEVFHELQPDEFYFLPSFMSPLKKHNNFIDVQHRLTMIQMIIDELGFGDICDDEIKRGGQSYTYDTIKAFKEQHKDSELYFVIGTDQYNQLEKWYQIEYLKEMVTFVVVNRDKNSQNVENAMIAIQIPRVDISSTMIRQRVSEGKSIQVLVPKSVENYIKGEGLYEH

[7] = molecular target: SWI/SNF-related matrix-associated actin-dependent regulator of chromatin subfamily A member 2 (Homo sapiens, UniProt P51531); test: Luminescence-based cell-based high throughput dose response assay to identify activators of the function of SWI/SNF related, matrix associated, actin dependent regulator of chromatin, subfamily a, member 2 (SMARCA2, BRM).; format: functional
[8] = molecular target: Voltage-gated inwardly rectifying potassium channel KCNH2 (Homo sapiens, UniProt Q12809); test: concentration-dependent hERG rescue from blockers – cell-based, thallium flux, dose response (AID 2121); format: ADME
Chain of Voltage-gated inwardly rectifying potassium channel KCNH2 (Q12809 whole entry): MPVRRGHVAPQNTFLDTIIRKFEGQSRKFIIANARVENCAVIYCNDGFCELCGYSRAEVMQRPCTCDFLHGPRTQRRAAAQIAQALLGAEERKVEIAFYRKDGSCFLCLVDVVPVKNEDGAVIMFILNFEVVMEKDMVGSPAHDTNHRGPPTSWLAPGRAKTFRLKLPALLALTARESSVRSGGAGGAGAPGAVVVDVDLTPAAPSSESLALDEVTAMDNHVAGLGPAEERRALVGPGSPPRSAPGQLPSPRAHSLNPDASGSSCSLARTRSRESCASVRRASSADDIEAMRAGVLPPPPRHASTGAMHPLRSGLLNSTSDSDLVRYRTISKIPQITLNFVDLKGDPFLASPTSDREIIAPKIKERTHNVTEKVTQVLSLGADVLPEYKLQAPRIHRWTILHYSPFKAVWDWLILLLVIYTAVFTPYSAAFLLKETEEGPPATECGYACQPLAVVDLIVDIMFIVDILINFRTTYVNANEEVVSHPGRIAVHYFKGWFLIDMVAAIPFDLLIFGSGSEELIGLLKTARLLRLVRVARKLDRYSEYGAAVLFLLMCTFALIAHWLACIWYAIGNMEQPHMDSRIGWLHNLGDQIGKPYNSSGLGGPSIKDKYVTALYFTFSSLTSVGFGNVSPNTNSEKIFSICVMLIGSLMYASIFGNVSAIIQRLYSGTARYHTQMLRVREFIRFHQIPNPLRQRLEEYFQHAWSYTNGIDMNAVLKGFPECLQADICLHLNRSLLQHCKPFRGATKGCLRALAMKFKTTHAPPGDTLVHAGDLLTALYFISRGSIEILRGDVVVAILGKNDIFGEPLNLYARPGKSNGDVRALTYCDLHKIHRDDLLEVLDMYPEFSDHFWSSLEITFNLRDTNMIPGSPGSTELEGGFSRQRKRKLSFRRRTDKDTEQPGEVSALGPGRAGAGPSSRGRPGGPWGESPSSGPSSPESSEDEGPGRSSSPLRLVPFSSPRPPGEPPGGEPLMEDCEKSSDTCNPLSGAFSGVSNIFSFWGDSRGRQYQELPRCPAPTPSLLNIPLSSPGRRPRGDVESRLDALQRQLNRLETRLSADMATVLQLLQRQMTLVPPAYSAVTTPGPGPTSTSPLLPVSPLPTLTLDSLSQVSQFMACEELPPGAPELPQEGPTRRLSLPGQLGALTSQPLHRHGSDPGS

[9] = Counterscreen for activators of the function of SWI/SNF related, matrix associated, actin dependent regulator of chromatin, subfamily a, member 2 (SMARCA2, BRM): Luminescence-based cell-based high throughput dose response assay to identify non-selective compounds using the VP16 reporter assay.; format: functional
[10] = molecular target: T2, Probable nicotinate-nucleotide adenylyltransferase; format: functional, Staphylococcus aureus subsp. aureus N315; conditions: read-out: IC50_Mean
[11] = tested on: Vero; test: viability of Vero cells under compound – cytotoxicity control for flavivirus capping enzyme inhibitors (AID 588742); format: functional; conditions: Chlorocebus sabaeus
[12] = molecular target: Genome polyprotein (Hepatitis C virus, UniProt Q2Q167); test: disruption of hepatitis C core self-association – biochemical, TR-FRET, dose response (AID 2159); parameters: species or system Hepacivirus hominis;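 further: blocks dimerization of HCV core protein measured by TR-FRET between tagged core106 pairs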
Chain of Genome polyprotein (Q2Q167 whole entry): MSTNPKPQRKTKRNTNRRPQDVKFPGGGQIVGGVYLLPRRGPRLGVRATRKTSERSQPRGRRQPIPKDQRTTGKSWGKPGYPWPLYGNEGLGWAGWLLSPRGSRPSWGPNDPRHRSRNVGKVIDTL

[13] = molecular target: T3, Bcl-2-related protein A1 (Mus musculus, UniProt Q07440); test: small-molecule antagonists of Bfl-1/BH3 interaction – biochemical, TR-FRET, mouse Bfl-1, confirmation (AID 621);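 further: TR-FRET binding of GST-Bfl-1 to FITC-labelled Bid peptide via terbium antibody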
T3 sequence (Q07440 whole entry): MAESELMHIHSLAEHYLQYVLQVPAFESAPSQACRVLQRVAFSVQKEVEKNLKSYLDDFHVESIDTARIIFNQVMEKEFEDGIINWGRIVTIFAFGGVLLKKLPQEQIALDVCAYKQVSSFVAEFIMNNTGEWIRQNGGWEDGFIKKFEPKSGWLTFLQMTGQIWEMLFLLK

[14] = molecular target: T4, Protein RecA (Mycobacterium tuberculosis, UniProt P9WHJ3); test: Fluorescence Cell-Free Homogeneous Dose Retest to Identify Inhibitors of RecA-Intein Splicing Activity. [Related pubchem assays (depositor defined):AID2097, AID2223, AID489010, AID492950]; format: functional
T4 sequence (P9WHJ3 whole entry): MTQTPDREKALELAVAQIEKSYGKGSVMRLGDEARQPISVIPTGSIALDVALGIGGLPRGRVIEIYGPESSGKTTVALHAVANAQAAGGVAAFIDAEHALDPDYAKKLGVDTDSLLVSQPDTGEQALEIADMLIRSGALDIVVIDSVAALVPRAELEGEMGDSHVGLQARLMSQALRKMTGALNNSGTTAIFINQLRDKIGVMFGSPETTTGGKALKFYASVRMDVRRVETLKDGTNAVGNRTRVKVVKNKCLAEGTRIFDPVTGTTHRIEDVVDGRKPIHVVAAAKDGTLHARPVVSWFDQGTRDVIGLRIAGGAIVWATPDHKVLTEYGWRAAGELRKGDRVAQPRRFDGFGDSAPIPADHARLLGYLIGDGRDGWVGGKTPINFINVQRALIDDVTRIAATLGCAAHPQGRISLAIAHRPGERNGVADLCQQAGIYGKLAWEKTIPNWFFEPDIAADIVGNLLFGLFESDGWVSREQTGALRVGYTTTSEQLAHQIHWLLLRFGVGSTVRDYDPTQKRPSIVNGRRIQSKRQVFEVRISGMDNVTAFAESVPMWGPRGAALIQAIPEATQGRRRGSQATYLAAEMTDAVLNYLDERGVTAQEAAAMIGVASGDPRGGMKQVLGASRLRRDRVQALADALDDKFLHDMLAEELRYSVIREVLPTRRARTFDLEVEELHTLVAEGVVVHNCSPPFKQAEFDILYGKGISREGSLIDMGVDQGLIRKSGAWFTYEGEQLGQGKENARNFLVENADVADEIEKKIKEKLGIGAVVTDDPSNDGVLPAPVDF

[15] = molecular target: T3, Bcl-2-related protein A1; test: displacement of Bid BH3 peptide from Bfl-1 – biochemical, fluorescence polarization, FITC-Bid, mouse, primary screen (AID 432)
[16] = molecular target: T5, SUMO-activating enzyme (Homo sapiens, UniProt Q9UBT2); test: blockers of SAE1/SAE2–UBC9 SUMO transfer – biochemical, HTRF, uHTS, primary screen (AID 2006); format: protein-complex assay
T5 sequence (Q9UBE0 whole entry): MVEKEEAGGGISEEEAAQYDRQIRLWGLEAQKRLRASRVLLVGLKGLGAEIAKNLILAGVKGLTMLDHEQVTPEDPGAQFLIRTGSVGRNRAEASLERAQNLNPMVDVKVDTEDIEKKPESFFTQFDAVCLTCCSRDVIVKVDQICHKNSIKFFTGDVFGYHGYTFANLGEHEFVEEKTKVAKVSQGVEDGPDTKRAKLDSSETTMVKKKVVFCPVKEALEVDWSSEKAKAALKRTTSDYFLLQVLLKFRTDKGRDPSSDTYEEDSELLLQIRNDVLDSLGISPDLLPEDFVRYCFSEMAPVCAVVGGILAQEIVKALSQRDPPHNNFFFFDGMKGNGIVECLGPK
T5 sequence (Q9UBT2 whole entry): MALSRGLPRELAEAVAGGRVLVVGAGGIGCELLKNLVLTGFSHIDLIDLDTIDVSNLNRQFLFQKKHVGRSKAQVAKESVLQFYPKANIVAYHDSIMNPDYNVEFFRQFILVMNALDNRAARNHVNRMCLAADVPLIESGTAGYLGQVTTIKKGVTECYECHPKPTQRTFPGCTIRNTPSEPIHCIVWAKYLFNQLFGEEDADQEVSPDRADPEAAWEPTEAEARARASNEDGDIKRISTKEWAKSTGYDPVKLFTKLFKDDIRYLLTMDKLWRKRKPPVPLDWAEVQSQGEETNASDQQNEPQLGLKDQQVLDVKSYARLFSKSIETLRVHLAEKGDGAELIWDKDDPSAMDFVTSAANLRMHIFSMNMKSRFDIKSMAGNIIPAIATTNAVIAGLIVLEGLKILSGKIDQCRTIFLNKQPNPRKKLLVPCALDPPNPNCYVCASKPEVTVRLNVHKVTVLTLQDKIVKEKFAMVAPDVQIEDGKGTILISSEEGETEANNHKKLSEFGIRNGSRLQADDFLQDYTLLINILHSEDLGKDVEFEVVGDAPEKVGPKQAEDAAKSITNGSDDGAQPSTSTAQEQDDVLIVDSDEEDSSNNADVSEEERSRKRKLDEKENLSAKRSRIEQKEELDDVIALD

[17] = molecular target: T6, Replicative DNA helicase DnaB (Mycobacterium tuberculosis, UniProt P9WMR3); test: DnaB intein splicing inhibitors, dose response, biochemical, cell-free fluorescence (AID 449749); format: functional
T6 sequence (P9WMR3 whole entry): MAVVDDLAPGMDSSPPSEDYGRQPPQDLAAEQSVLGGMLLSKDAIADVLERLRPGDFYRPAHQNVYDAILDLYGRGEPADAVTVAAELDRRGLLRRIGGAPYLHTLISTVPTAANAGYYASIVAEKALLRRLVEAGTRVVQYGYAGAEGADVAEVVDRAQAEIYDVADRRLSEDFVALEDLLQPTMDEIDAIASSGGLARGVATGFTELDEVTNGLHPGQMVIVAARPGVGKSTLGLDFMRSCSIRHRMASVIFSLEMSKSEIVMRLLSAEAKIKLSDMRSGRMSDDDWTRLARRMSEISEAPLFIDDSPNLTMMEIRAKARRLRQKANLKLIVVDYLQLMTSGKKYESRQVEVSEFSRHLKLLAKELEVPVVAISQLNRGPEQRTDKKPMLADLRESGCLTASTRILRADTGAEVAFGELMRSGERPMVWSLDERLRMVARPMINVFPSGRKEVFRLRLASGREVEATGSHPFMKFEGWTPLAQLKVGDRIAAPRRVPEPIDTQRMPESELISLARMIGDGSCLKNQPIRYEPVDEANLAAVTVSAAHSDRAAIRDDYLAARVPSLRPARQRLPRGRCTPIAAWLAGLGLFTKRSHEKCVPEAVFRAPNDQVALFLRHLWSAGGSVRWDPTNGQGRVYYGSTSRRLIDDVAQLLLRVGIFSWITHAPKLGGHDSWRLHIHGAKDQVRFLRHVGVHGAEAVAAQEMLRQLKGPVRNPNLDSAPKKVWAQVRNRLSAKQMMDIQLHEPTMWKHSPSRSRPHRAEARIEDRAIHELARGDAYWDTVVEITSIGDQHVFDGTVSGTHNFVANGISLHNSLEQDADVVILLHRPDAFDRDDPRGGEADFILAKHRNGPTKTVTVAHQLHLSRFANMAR

[18] = molecular target: T5, SUMO-activating enzyme; test: blockers of UBC9-mediated SUMO conjugation – biochemical, AlphaScreen, SUMOylation inhibitor project, confirmation (AID 2018); format: functional
[19] = molecular target: fMet-Leu-Phe receptor (Homo sapiens, UniProt P21462); test: formyl peptide receptor binders – dose response (AID 519); format: functional
[20] = molecular target: Ubiquitin carboxyl-terminal hydrolase BAP1 (Homo sapiens, UniProt Q92560); test: inhibition of BAP1 ubiquitin hydrolase activity – biochemical, dose response (AID 714); format: functional
Chain of Ubiquitin carboxyl-terminal hydrolase BAP1 (Q92560 whole entry): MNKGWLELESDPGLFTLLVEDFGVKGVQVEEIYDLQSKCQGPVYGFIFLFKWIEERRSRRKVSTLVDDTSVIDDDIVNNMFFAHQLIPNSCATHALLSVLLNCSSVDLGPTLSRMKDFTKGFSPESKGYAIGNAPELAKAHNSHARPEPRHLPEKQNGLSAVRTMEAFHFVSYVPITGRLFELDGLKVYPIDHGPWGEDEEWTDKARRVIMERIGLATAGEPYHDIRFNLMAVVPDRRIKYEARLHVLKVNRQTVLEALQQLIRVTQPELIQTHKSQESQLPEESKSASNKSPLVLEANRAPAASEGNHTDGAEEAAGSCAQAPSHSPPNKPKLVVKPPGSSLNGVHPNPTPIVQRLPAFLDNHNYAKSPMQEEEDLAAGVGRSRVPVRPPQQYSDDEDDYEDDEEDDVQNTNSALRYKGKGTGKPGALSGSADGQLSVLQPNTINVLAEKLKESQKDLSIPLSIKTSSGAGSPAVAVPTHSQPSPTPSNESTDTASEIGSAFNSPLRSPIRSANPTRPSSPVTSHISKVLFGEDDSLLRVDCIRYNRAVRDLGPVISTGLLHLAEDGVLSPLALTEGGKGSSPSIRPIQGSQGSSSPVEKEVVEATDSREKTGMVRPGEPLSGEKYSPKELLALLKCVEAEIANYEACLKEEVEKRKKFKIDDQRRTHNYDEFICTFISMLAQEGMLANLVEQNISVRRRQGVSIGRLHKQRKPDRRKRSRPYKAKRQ

[21] = molecular target: Paired box protein Pax-8 (Homo sapiens, UniProt Q06710); test: PAX8 transcriptional activity inhibition in RMG-I – RMG-I cells, luciferase, cherry-pick, dose response (AID 687027); format: functional, cell-based;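 further: luciferase reporter driven by Pax8 target thyroperoxidase promoter measured by SteadyGlo luminescence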
[22] = HEK-293T viability loss, compound-treated – cell-based, uHTS hits, cytotoxicity control for B/T-cell NF-kB inhibitor project, dose response (AID 489019); format: functional;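 further: IC50 reflects cytotoxicity as loss of cell viability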
[23] = tested on: Jurkat; test: blockers of NF-kB activation in T cells – Jurkat, luciferase reporter, luminescence, B- and T-cell, dose response (AID 489004); format: functional, cell-based; conditions: Homo sapiens;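 further: NF-kB luciferase reporter Jurkat cells stimulated with PMA plus ionomycin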
[24] = general cell-killing toxicity readout – plate reader, dry powder samples, cytotoxicity control for PAX8 inhibitor project, dose response (AID 743021); format: functional, cell-based
[25] = Luminescent dose response cell-based high throughput screening assay for inhibitors of the Janus kinase 2 mutant JAK2V617F. [Related pubchem assays: 1446 (Primary screen.), 1521 (Confirmation assay.), 1486 (Counter screen.)]; format: functional
[26] = microbe, parasite or virus in culture; format: functional; conditions: Mycobacterium tuberculosis
[27] = molecular target: 14-3-3 protein gamma (Homo sapiens, UniProt P61981); test: modulators of 14-3-3 gamma client binding – dose response (AID 711); format: functional
Chain of 14-3-3 protein gamma (P61981 whole entry): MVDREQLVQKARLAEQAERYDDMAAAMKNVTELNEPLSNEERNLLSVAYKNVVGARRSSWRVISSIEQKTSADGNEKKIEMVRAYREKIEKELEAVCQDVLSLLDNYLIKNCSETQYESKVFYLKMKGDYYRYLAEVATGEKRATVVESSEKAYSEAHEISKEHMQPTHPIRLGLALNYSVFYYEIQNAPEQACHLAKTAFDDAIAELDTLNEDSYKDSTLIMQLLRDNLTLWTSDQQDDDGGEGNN

[28] = cytotoxicity toward HT-29 cells – cell-based, CellTiter-Glo luminescence, IC50, dose response (AID 1117330); format: functional
[29] = RKO cell viability reduction, dose response, CellTiter-Glo luminescence (AID 1117322); format: functional
[30] = cytotoxicity toward Colo320 cells – cell-based, CellTiter-Glo luminescence, IC50, dose response (AID 1117334); format: functional; conditions: COLO 320
[31] = cytotoxicity toward HCT116 cells – cell-based, CellTiter-Glo luminescence, IC50, dose response (AID 1117332); format: functional; conditions: HCT-116
[32] = CellTiter-Glo luminescence survival assay, SW480 colon tumor line, concentration-response curve, half-maximal inhibitory concentration (AID 1117338); format: functional
[33] = rise of 2N DNA cells, HeLa – IC50, dose response (AID 1117349); format: functional, cell-based
[34] = SNU-C1 cell viability reduction, dose response, CellTiter-Glo luminescence (AID 1117323); format: functional, cell-based
[35] = HCT116 cell viability decrease, GSK3B pretreatment – CellTiter-Glo, IC50, dose response (AID 1117339); format: functional; conditions: HCT-116
[36] = Reduced DLD-1 viability, concentration-response, CellTiter-Glo luminescence (AID 1117352); format: functional
[37] = rise of 4N DNA cells, HeLa – IC50, dose response (AID 1117351); format: functional, cell-based

SMILES: COc1ccc(N2CC(=O)C(c3nc(-c4ccccc4)cs3)=C2N)cc1
- IC50 [1]: 24.7 µM (not active)
- IC50 [2]: 13.4 µM (not active)

SMILES: CCC(=O)Nc1c(C#N)c2nc3ccccc3nc2n1-c1ccc(C)cc1
- IC50 [3]: > 100 µM (not active)

SMILES: O=Cc1ccc(OC2C=CC(C#Cc3ccccc3)OC2CO)cc1 (configuration not stated)
- AC50 [4]: 0.631 µM (inconclusive)
- AC50 [5]: 3.98 µM (inconclusive)

SMILES: O=C1NC(=S)NC(=O)C1=NNc1ccc(S(=O)(=O)N2CCc3ccccc32)cc1
- IC50 [6]: 8.57 µM (active)
- EC50 [7]: > 91.2 µM (inactive)
- EC50 [8]: 0.62 µM (active)
- EC50 [9]: > 91.2 µM (inactive)
- IC50 [10]: 62.4 µM (active)
- CC50 [11]: > 20 µM (active)

SMILES: Cc1sccc1C1C(C#N)=C(N)SC(N)=C1C#N
- IC50 [12]: > 49.8 µM (not active)

SMILES: Cc1ccccc1Nc1cc2ccccc2c(O)n1
- IC50 [13]: > 100 µM (not active)
- EC50 [14]: 0.616 µM (active)
- IC50 [15]: 22.4 µM (active)
- IC50 [16]: 4.3 µM (active)
- AC50 [17]: 41.9 µM (inconclusive)
- IC50 [18]: 1.84 µM (active)
- Ki [19]: > 66.7 µM (inactive)

SMILES: Cc1sc(NC(=O)CSc2nnc(-c3ccccc3)o2)c(C#N)c1C
- IC50 [20]: 44.8 µM (not active)

SMILES: Cc1ccc(Cn2ccs/c2=N\C(=O)CCl)cc1
- AC50 [21]: 1.31 µM (active)
- IC50 [22]: > 80 µM (inactive)
- IC50 [23]: 0.49 µM (active)
- AC50 [24]: 3.73 µM (active)
- IC50 [25]: 0.744 µM (active)
- CC50 [26]: 0.299 µM (active)

SMILES: CN1CCc2c(sc(/N=C/c3ccco3)c2C(N)=O)C1
- IC50 [27]: > 50 µM (not active)

SMILES: O=C(c1cc(O)c(O)c(O)c1)c1ccc(O)c(O)c1O [EXIFONE]
- IC50 [28]: 9.45 µM (inactive)
- IC50 [29]: 0.192 µM (active)
- IC50 [30]: 9.38 µM (inactive)
- IC50 [31]: 16.3 µM (inactive)
- IC50 [32]: 9.95 µM (inactive)
- IC50 [33]: > 10 µM (inactive)
- IC50 [34]: 12.8 µM (inactive)
- IC50 [35]: 0.0691 µM (active)
- IC50 [36]: 11.9 µM (inactive)
- IC50 [37]: > 10 µM (inactive)
